Assay results reported in patent US4391978A, “Phenyl-quinolizidines” (Hoffmann-La Roche Inc., priority 1980, dated 1983).
Where a name gives a salt, the structure may show the parent alone. Read-outs that look alike come from different tables or passages of the source.

Experiments:
[1] = system: rats trained to jump up on a vertical isolated pole; assay: Pole Climbing Test (rat): inhibition of conditioned (BCR) and unconditioned (BUR) reaction; type: in vivo; details: ip; for ED50: inhibition of conditioned reaction in 50% of the animals, observation time 6 hours; for ED10: inhibition of unconditioned reaction, ED10, i.p.
Experimental: "Pole Climbing" Test (rat)
For this experimental procedure there was used per dosage a group of 10 rats trained to jump up on a vertical isolated pole in the experimental cage, to escape an electroshock (unconditioned stimulus) produced via the lattice floor immediately after an acoustic signal (conditioned stimulus). The inhibition of the conditioned reaction in the case of 50% of the animals during an observation time of 6 hours is determined by the parameter ED 50 BCR, the inhibition of the unconditioned reaction is determined by the parameter ED 10 BUR.

[2] = target: T1, receptor, calf striatum ([^3 H]-spiroperidol) (Bos taurus, UniProt P20288); assay: Spiroperidol-Binding Test (in vitro)
T1 construct: calf striatum was used as the receptor; from tissue; host or cells: calf striatum
T1 sequence (P20288 whole entry): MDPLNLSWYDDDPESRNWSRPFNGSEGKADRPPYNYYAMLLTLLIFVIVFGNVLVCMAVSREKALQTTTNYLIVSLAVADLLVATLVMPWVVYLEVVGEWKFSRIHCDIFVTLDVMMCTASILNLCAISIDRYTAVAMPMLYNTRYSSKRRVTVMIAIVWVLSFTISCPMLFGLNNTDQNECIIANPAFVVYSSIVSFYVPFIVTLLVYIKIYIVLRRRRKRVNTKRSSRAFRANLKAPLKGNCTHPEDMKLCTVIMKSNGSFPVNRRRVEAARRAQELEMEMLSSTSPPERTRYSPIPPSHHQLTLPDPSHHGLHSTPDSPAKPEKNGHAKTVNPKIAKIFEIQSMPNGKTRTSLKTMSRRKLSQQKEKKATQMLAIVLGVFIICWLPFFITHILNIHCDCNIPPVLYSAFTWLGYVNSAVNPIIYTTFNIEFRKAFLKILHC

[3] = system: apomorphine-induced vomiting (dog); assay: Antiemetic Activity (dog): apomorphine-induced vomiting; type: in vivo, dog (Beagle hounds); details: Canis lupus familiaris, po, 1 hour before apomorphine hydrochloride 0.1 or 0.3 mg/kg s.c., 50% of animals protected, read-out: Anti-apomorphine emesis ED50 p.o.
[4] = 50% detachment of specific binding of [^3 H]-spiroperidol, calf striatum, in vitro, read-out: Spiroperidol-Binding IC50

O=c1[nH]c2cc(I)ccc2n1[C@@H]1CCN2C[C@@H](c3ccccc3F)CC[C@@H]2C1 (relative stereo) [rac-1-[(9aβH)-7β-(o-fluorophenyl)-octahydro-2H-quinolizin-2α-yl]-5-iodo-2-benzimidazolinone]
ED50 [1]: 0.1 mg/kg
ED10 [1]: 0.055 mg/kg
IC50 [2]: 8.6 nM

O=c1[nH]c2cc(Br)ccc2n1[C@@H]1CCN2C[C@@H](c3ccccc3F)CC[C@@H]2C1 (relative stereo) [rac-1-[(9aβH)--7β-(o-Fluorophenyl)-octahydro-2H--quinolizin-2α-yl]-5-bromo-2-benzimidazolinone.HCl]
ED50 [1]: 0.08 mg/kg
ED10 [1]: 0.1 mg/kg
IC50 [2]: 3.8 nM

N#Cc1ccc2c(c1)[nH]c(=O)n2[C@@H]1CCN2C[C@@H](c3ccccc3F)CC[C@@H]2C1 (relative stereo) [rac-1-[(9aβH)--7β-(o-Fluorophenyl)-octahydro-2H--quinolizin-2α-yl]-5-cyano-2-benzimidazolinone.HCl]
ED50 [1]: 0.65 mg/kg
ED10 [1]: 1 mg/kg
IC50 [2]: 50 nM

COc1cc(N)c(Cl)cc1C(=O)N[C@@H]1CCN2C[C@@H](c3ccccc3Cl)CC[C@@H]2C1 (relative stereo) [rac-4-amino-5-chloro-N-[(9aβH)-7β-(o-chlorophenyl)-octahydro-2H-quinolizin-2α-yl]-o-anisamide]
ED50 [3]: 2.3 mg/kg
ED50 [1]: 12.5 mg/kg
ED10 [1]: 12.5 mg/kg
IC50 [2, 4]: 30 nM

O=C1CCCN1C(=O)N[C@@H]1CCN2C[C@@H](c3ccccc3Cl)CC[C@@H]2C1 (relative stereo) [rac-N-((9aβH)-7β-(o-chlorophenyl)octahydro-2H-quinolizin-2α-yl)-2-oxo-1-pyrrolidinecarboxamide]
ED50 [1]: 23 mg/kg
ED10 [1]: > 30 mg/kg

O=C(N[C@@H]1CCN2C[C@@H](c3ccccc3Cl)CC[C@@H]2C1)c1cccs1 (relative stereo) [rac-N-((9aβH)-7β-(o-chlorophenyl)octahydro-2H-quinolizin-2α-yl)-2-thiophenecarboxamide]
ED50 [1]: 18 mg/kg
ED10 [1]: 25 mg/kg
IC50 [2, 4]: 123 nM

CCS(=O)(=O)c1ccc(OC)c(C(=O)N[C@@H]2CCN3C[C@@H](c4ccccc4Cl)CC[C@@H]3C2)c1 (relative stereo) [rac-N-((9aβH)-7β-(o-chlorophenyl)octahydro-2H-quinolizin-2α-yl)-5-(ethylsulfonyl)-o-anisamide]
ED50 [3]: 0.38 mg/kg
ED50 [1]: 10 mg/kg
ED10 [1]: 10 mg/kg
IC50 [2, 4]: 135 nM

COc1ccc(S(N)(=O)=O)cc1C(=O)N[C@@H]1CCN2C[C@@H](c3ccccc3Cl)CC[C@@H]2C1 (relative stereo) [rac-N-((9aβH)-7β-(o-chlorophenyl)octahydro-2H-quinolizin-2α-yl)-5-sulfamoyl-o-anisamide]
ED50 [3]: 0.8 mg/kg

O=C(N[C@@H]1CCN2C[C@@H](c3ccccc3Cl)CC[C@@H]2C1)c1ccc(F)cc1 (relative stereo) [rac-N-((9aβH)-7β-(o-chlorophenyl)octahydro-2H-quinolizin-2α-yl)-p-fluorobenzamide]
ED50 [1]: 12 mg/kg
ED10 [1]: 5.5 mg/kg
IC50 [2, 4]: 67 nM

O=C(N[C@@H]1CCN2C[C@@H](c3ccccc3Cl)CC[C@@H]2C1)C1CC1 (relative stereo) [rac-N-[(9aβH)-7β-(o-chlorophenyl)-octahydro-2H-quinolizin-2α-yl]-cyclopropanecarboxamide]
ED50 [1]: 6 mg/kg
ED10 [1]: 5.5 mg/kg
IC50 [2, 4]: 550 nM

O=C(c1ccc(F)cc1)[C@@H]1CCN2C[C@@H](c3ccccc3Cl)CC[C@@H]2C1 (relative stereo) [rac-[(9aβH)-7β-(o-chlorophenyl)-octahydro-2H-quinolizin-2α-yl]p-fluorophenylketone]
ED50 [1]: 3 mg/kg
ED10 [1]: 3 mg/kg
IC50 [2, 4]: 11 nM
